Patent US10842793B2, “Inhibitors of the unconventional secretion of fibroblast growth factor 2 (FGF2) by tumor cells and uses thereof” (Universität Heidelberg, priority 2016, dated 2020)

Molecular target: T1, GST-NΔ173 Tec (auto-phosphorylation) (Homo sapiens, UniProt P42680)
T1 construct: made in house; host or cells: SF9 insect cells (baculovirus)
Assay: In vitro Tec kinase auto-phosphorylation
Format: biochemical
Conditions: 50 μM compound; for effect on NΔ173 Tec auto-phosphorylation in the presence of STAP1: STAP1 present; for inhibition of Tec auto-phosphorylation in the absence of a substrate: no FGF2, FIGS. 7B and 7E
Method: FGF2 tyrosine phosphorylation and Tec kinase auto-phosphorylation were reconstituted with purified components based on a Western analysis using anti-phosphotyrosine antibodies directed against an FGF2-derived phosphopeptide. In vitro phosphorylation experiments were conducted in the absence (1% DMSO mock control) and presence of the small molecule inhibitors (#6, #14, #21; 50 μM in 1% DMSO) and control compounds (#18, #19; 50 μM in 1% DMSO) introduced in FIGS. 4 and 5. Fluorescent secondary antibodies were used to detect antigens employing the LI-COR Odyssey imaging platform. M=PageRuler Prestained Protein Ladder. For details, see Experimental Procedures.
FGF2 and STAP1 tyrosine phosphorylation as well as Tec kinase auto-phosphorylation were analyzed as described in the legend to FIG. 6 and in Experimental Procedures. In vitro phosphorylation experiments were conducted in the absence (1% DMSO mock control) and presence of the small molecule inhibitors (#6, #14, #21; 50 μM in 1% DMSO) and control compounds (#18, #19; 50 μM in 1% DMSO) introduced in FIGS. 4 and 5. A Western analysis was conducted using anti-phosphotyrosine antibodies (anti-pY-FGF2 for FGF2 and Tec as well as anti-pY-4G10 for STAP1). M=PageRuler Prestained Protein Ladder: 140, 115, 80, 65, 50, 40, 30, 25, 15, 10 kDa. Fluorescent secondary antibodies were used to detect and quantify antigens using the LI-COR Odyssey imaging platform. In panels D, E and F, following normalization based upon background signals detected in the absence of Tec kinase or ATP, the average of the signals detected under mock conditions was defined as 100% activity. Standard deviations are shown. A one-tailed and unpaired T-test was conducted to assess statistical significance (* p<0.05, ** p<0.01, *** p<0.001, **** p<0.0001). “NS” indicates absence of significant differences.
A Tec kinase in vitro phosphorylation assay was established to test the inhibitory potential and selectivity of the small molecule inhibitors reported in this study (FIGS. 6 and 7). Tyrosine phosphorylation of FGF2 and STAP1, another established substrate of Tec kinase, was tested in a final volume of 100 μl (60 mM Hepes pH 7.5, 3 mM MgCl2, 20 μM ATP, 3 μM Sodium orthovanadate, 1.2 mM DTT, 50 ng/μl PEG 20000, 0.05% w/v Tween 20, 0.001% BSA). GST-NΔ173Tec (60 nM) was incubated in the absence (1% DMSO mock control) or presence of each compound (50 μM in 1% DMSO). Where indicated, reactions contained 250 nM of either FGF2 or 250 nM STAP1 (Hölzel Diagnostika, # GWB-P0486E-100). Following incubation at 30° C. for 45 minutes (corresponding to the midpoint of linear product formation), the reaction was terminated using SDS sample buffer and boiling for 4 minutes at 95° C. […] Phosphorylation levels of GST-NΔ173 Tec (auto-phosphorylation), FGF2 and STAP1 were quantified by a Western analysis using polyclonal anti-phosphotyrosine antibodies raised against a FGF2-derived synthetic peptide containing a phosphorylated tyrosine residue (ANRpYLAMKED; SEQ ID NO: 1). […] Phosphorylation levels of STAP1 were monitored using a monoclonal anti-phosphotyrosine antibody (clone 4G10®, #05-321, Merck Millipore). Appropriate fluorescent secondary antibodies (goat anti-rabbit IgG conjugated with Alexa Fluor® 680, # A-21076, Life Technologies; goat anti-mouse IgG conjugated with Alexa Fluor® 680, # A-21057, Life Technologies) were used to quantify all antigens employing the LI-COR Odyssey infrared imaging platform. […]

T1 sequence (P42680 174-631, stated change not applied): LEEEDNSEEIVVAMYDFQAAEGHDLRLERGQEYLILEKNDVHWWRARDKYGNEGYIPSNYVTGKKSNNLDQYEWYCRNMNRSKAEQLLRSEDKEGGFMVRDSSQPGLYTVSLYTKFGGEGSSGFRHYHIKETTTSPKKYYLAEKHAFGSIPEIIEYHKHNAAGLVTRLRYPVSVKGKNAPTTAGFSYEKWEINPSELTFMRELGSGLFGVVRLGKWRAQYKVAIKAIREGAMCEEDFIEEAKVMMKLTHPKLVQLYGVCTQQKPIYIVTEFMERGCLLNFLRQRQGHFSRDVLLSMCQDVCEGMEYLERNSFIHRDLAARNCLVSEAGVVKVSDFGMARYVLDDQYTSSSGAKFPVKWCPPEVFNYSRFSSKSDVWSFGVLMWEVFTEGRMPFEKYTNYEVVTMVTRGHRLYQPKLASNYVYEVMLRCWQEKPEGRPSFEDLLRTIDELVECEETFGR

SMILES	effect on NΔ173 Tec auto-phosphorylation in the presence of STAP1	inhibition of Tec auto-phosphorylation in the absence of a substrate
COC(=O)c1c(C)[nH]c(C(=O)OCc2cc(=O)n3c(C)cccc3n2)c1C [compound #6]	neither auto-phosphorylation of NΔ173 Tec nor tyrosine phosphorylation of STAP1 is affected	particularly evident
CC(=O)c1c(C)[nH]c(C(=O)CSc2nc3cc(Cl)cnc3[nH]2)c1C [compound #21]	neither auto-phosphorylation of NΔ173 Tec nor tyrosine phosphorylation of STAP1 is affected	particularly evident
CC(=O)c1c(C)[nH]c(C(=O)OCc2cc(=O)n3cc(Br)ccc3n2)c1C [compound #14]	neither auto-phosphorylation of NΔ173 Tec nor tyrosine phosphorylation of STAP1 is affected	
